Tested on: ADJ/PC6 tumour
Assay: Antitumour activity against the ADJ/PC6 tumour in mice, intraperitoneal route (LD50, ED90, T.I.)
Format: in vivo
Settings: for ED90: Table 1, ADJ/PC6 tumour in mice; for LD50: Table 1, mice
Protocol: The invention will now be described by way of example only. A selection of compounds according to the invention were prepared by the above-described method, and were characterised by elemental analysis and infra red spectroscopy. The compounds were compared against known compounds and against each other for activity against the ADJ/PC6 tumour in mice, when given by the intraperitoneal route and the results are tabulated below.

N.N.[Cl][Pt]([Cl])([Cl])[Cl] [Comparison A]
ED90: 3.4 mg/kg | LD50: 18 mg/kg

NC1CCCCC1.NC1CCCCC1.[Cl][Pt]([Cl])([Cl])[Cl] [Comparison B]
ED90: 10 mg/kg | LD50: 190 mg/kg
